# * marks the point of attachment. Acm = CC(=O)NC*
# Legend:
# [1] = system: plasmid nucleic acid pRSVLuc; experiment: Surface plasmon resonance (BIAcore) binding kinetics of peptides/conjugates to immobilized biotinylated plasmid DNA; details: for ka: apparent rate constant for association; for ka / kd: SPR, PBS, 25° C.; for kd: apparent rate constant for dissociation
# Method: In the examples described below, SPR was detected using the BIAcore system. This machine contained an SPR detector and an integrated microfluidic cartridge which is engineered such that an analyte solution (cationic peptide) is continuously passed over the sensor chip. The sensor chip consists of a glass plate coated with a thin film of gold covered in a layer of carboyxymethyl dextran. The chip used has a dextran layer to which streptavidin is covalently attached. The chip is prepared for use by adding biotinylated nucleic acid which will be bound to the chip via the streptavidin-biotin interaction, and the same chip is used in a series of experiments.
# As material binds to the immobilized nucleic acid molecule on the sensor chip, the SPR angle of plane polarized light shining on the surface of the chip is monitored by the detector. Changes in angle are defined as resonance units (RU) and data are collected every second. Background effects are detected and automatically subtracted by the use of a control flow cell in line with the nucleic acid flow cell.
# A typical sensorgram has three phases: an association phase, an equilibrium phase and a dissociation phase (see FIG. 1). The rise in signal occurs as more peptide binds to the immobilized plasmid DNA until equilibrium conditions are reached. The height of the peak is directly proportional to the mass of peptide bound. If the flow continues with buffer containing no peptide, peptide begins to dissociate from the complex and the resonance signal is reduced. The sensorgram can be used to compute apparent rate constants for each of the three individual processes.
# (1) dC/dt=ka [PF ] [Pmax -PB ]-kd [PB ]
# Measurement of Binding Kinetics by Surface Plasmon Resonance
# A 6 kilobase (kb) plasmid DNA (pRSVLuc) was biotinylated using photoactivatable biotin (Pierce and Warriner) as per manufacturer's instructions.
# A sensor chip with immobilized streptavidin (SA5) was conditioned following manufacturer's instructions, i.e., three one-minute injections of 1 M NaCl: 50 mM NaOH followed by one 1 min injection of 0.5% SDS. Flow rate on the BlAcore sensing device was 20 μl per min, running buffer was phosphate buffered saline (PBS). Flow path was flow cells 1 and 2.
# The flow path was switched to flow cell 2 only and the flow rate was reduced to 10 μl per minute. Biotinylated plasmid at a concentration of […] in 0.5M NaCl was injected for 3 mins.
# Phosphate buffered saline was used as running buffer at a flow rate of 20 μl per minute. The flow path was over flow cells 1 and 2. Flow cell 1 was used as a reference cell. The experiments were carried out at a temperature of 25° C.
# Peptides were injected at various concentrations for three minutes. The injection was followed by a 5 min dissociation phase before the injection port was washed. The sensor chip was regenerated by the injection of 2M NaCl for 1 min. If necessary, this injection was repeated to bring the response back down to baseline before the next peptide sample was injected.
# The data was analysed using the methods described in the handbook (BIAevaluation 2.1. Software Handbook, Pharmacia Biosensor AB, Uppsala, Sweden).
# Essentially the plots were evaluated as follows: The dissociation constant, kd, was determined first. A curve or family of curves (same NBC at different concentrations) were plotted as response (Y) versus time as Ln (Yo/Y) versus time. In the area where the Ln(Yo/Y) curve was linear, a fit of the default dissociation model [AB]=[A]+[B] was made. The association constant, ka, was then calculated by fitting the related association model on that part of the association curve where a plot of In(abs(dY/dt) versus time was linear. KD were approximated by dividing the calculated kd with the calculated ka.
# Jurkat cell line = experiment: In vitro transfection with pRSVLuc (luciferase) condensed on peptides; format: cell-based; details: peptide 2 μg/μg plasmid DNA
# Method: After incubation the cells are lysed and are assayed for gene expression. In the case of the luciferase reporter gene, luciferin and ATP are added to lysed cells and the light emitted is measured with a luminometer (see deWet et al., supra).
# Cell lines such as Jurkat and K562 grow in suspension and can be transfected and the level of transgene expression (luciferase activity) determined b) the following method. Cells are harvested on the day of assay by centrifugation at 1200 rpm for 5 mins at room temperature. The cell pellet is resuspended in phosphate buffered saline and re-centrifuged. This operation is performed twice. […] The cells are then aliquoted into tubes and 0.75 ml of RPMI medium added, followed by 0.04-0.08 ml of 100 mM Chloroquine and finally 0.25 ml of DNA-complex solution. The transfection is then allowed to proceed by incubating the cells at 37° C. for 4 h. After this time the cells are harvested by centrifugation at 2000 rpm. The cells are then suspended in 1 ml of RPMI medium and re-centrifuged. Finally the cells are suspended in 0.5 ml RPMI medium containing 10% foetal bovine serum. Each 0.5 ml of transfected cell suspension is transferred to a well of a 12 well plastic culture plate containing 1.5 ml of RPMI 10% FBS. The original transfection tube is rinsed with a further 1 ml of medium and the wash transferred to the culture dish making a final volume of 3 ml. The culture plate is then incubated at 37° C. for 24-90 h in an atmosphere of 5% CO2. The contents of each well in the culture dish are transferred to centrifuge tubes and the cells collected by centrifugation at 13000 rpm. The pellet is resuspended in 0.12 ml of Lysis Buffer (100 mM sodium phosphate, pH 7.8; 8 mM magnesium chloride, 1 mM EDTA; 1% Triton X-100 and 15% glycerol) and agitated with a pipette. The lysate is centrifuged at 13000 rpm for 1 min and the supernatant collected. 80 μl of the supernatant are transferred to a luminometer tube. The luciferase activity is then assayed using a Berthold Lumat L9501 luminometer. The assay buffer used is Lysis Buffer containing 10 mM Luciferin and 100 mM ATP. Light produced by the luciferase is integrated over 4s and is described as relative light units (RLU). The data are converted to RLU/ml of lysate, RLU/cell or RLU/mg protein (protein concentration of the lysate having been determined in this case by the BioRAD Lowry assay.
# In order to compare the relative efficiency of transfection of complexes composed of different NBC condensation peptides or poly-L-lysine, pRSVLuc DNA at a concentration of 100 μg/ml was condensed using peptide at a ratio of 2 μg/μg plasmid DNA as described herein with the following deviation: prior to addition to the cells (Jurkat cell line) the complexes were diluted to 20 μg/ml with 10% PEG 10 000; 37 mM sodium chloride; 25 mM sodium phosphate, pH 7.4. The cells were assayed for luciferase after 24 h.
# [2] = system: KLN-205 squamous epithelial syngenic tumour cells; experiment: In vivo transfection of KLN-205 tumours in DBA2 mice by local injection of peptide/plasmid complexes (nitroreductase immunostaining); parameters: species or system mouse; details: 0.5 μg peptide/μg DNA, intratumoural injection
# Method: A representative in via cell transfection system is transfection of tumor cells using a murine carcinoma model.
# The murine carcinoma model DBA2 containing the squamous epithelial syngenic tumour cell line KLN-205 was prepared as described in the Examples. A transfecting complex was prepared using a solution of plasmid DNA encoding a reporter gene or, for example, nitroreductase and a selected NBC peptide 0.5 μg peptide/μg DNA, as described herein. Where desired, a conjugate peptide was added to the transfecting complex, at a concentration of 0.1-0.3 μg […] peptide/μg DNA.
# Transfection efficiency may be determined in a number of ways, including assessing the effect of the reporter gene on the target tissue, or by quantitating the gene product. Below, tissues samples were obtained and nitroreductase gene expression was ascertained via staining of tissue sections.
# The ability to transfect tumor cells in vivo in mice was tested using plasmid nucleic acid carrying the nitroreductase reporter gene condensed on each of the following peptides: NBC15, NBC8, NBC9, NBC11, NBC7.
# DBA2--male mice, aged 5-10 weeks were injected subcutaneously in each flank with a squamous epithelial syngenic tumour cell line KLN-205. The cell line was grown up in 175 ml T-flasks in standard EMEM medium containing 10% foetal calf serum. When the cells reached a density of 4×10^6 they were suspended by a standard trypsinization technique, washed in PBS and diluted to a final concentration of […].
# The anaesthetic was Enflurane (Alynane; Anaquest, Ltd., Windlesham, Surrey UK): Ketamine (10% Ketaset, Willows Francis Veterinary, Cramley, West Sussex, UK); Rompun (2%, Bayer UK, Ltd., Suffolk, UK). For 10 ml anaesthetic mixture: 8.5 ml PBS; 1 ml Ketamine; 0.5 ml Rompun. Each animal was injected intra-peritoneally with 200 μl/animal using 1 ml syringe with 25 gauge needle. Once anaesthetized, the tumour is manipulated between the fingers lifting it slightly away from the animal's body and at the same time apply minimum pressure to the tumour. Using a 0.5 ml insulin needle the formulated delivery vehicle (a plasmid containing the E. coli nitroreductase gene condensed on a peptide at a ratio of 0.5 μg peptide/μg DNA) to be injected is taken up and the tumour is injected horizontally trying to avoid any visible blood vessels and necrotic or abnormal tissue. Daily monitoring is continued until the experiment is terminated.
# 7μ sections of frozen tumour tissue are prepared using standard methods and a Cryostat and air dried. Sections are fixed with freshly prepared 4% PFA/PBS for 30 mins at room temperature and then washed twice with 0.01% Tween-20/PBS 5 mins each wash. Sections are then immersed in 0.25% hydrogen peroxide/PBS, at room temperature (20C.) for 30 mins, and then washed three times in 0.01% Tween 20/PBS for 5 mins each wash. Sections are then permeabilised by treatment with ice cold 0.1 % TRITON X-100 for 5 mins, followed by a further two washes in 0.01% Tween-20/PBS 5mins each wash. The sections are then blocked with 5% NGS/PBS 60mins at room temperature in a wetbox. After decanting the blocking solution, 0.5 ml diluted antiserum/slide (1:400 in 2.5% NGS) is added and the sections incubated for 60 mins at room temperature. Slides are then washed three times in 0.01% Tween-20/PBS 5 mins each wash. Secondary antibody (0.5 ml) from ABC Elite Vector stain kit is added as follows and incubated 30 mins at room temperature in a wetbox.
# The tumour is a murine syngenic squamous carcinoma produced by subcutaneous injection of KLN205 cells. When the tumours were approximately 4 mm in diameter they were injected with 20 μl of plasmid DNA formulated with the NBC15 peptide. After 48 h the tumours were excised and sectioned by standard histological techniques and immunostained for expression of the transgene (E. coli nitroreductase). […] In this case the tumours were injected with the same plasmid formulated in 0.5 μg NBC9 peptide/μg DNA.
Substance,ka [1] [M⁻¹ s⁻¹],kd [1] [s⁻¹],transfection compared with polydisperse poly-L-lysine (Jurkat cell line; luciferase),association reaction ([1]; shape of association kinetics),ranking by numbers of transfected tumor cells (most to least efficient) [2],"rank in order of relative transfection efficiency (most to least efficient) (Jurkat cell line; luciferase after 24 h, FIG. 7)","number of transfected tumor cells / level of transfection ([2]; 48 h, nitroreductase immunostaining)"
H-TKKKKKKKKKKKKKKKKKKC-OH [NBC14],211000,0.00075,significantly better transfection agents than the polydisperse poly-L-lysine,,,,
H-TRPAWRRAKRRAARRCGVSARRAARRAWRRE-OH [NBC7],3670,0.000133,,clear biphasic kinetics,"NBC15>NBC8, NBC9, NBC11>NBC7>>>poly-lysine",,
NH2-KKSPKKAKKPAAKKSPKKAKKPAAKKSPKKAKKPAYC(Acm)-COOH (H-KKSPKKAKKPAAKKSPKKAKKPAAKKSPKKAKKPAYC(Acm)-OH; SMILES CC(=O)NCSC[C@H](NC(=O)[C@H](Cc1ccc(O)cc1)NC(=O)[C@H](C)NC(=O)[C@@H]1CCCN1C(=O)[C@H](CCCCN)NC(=O)[C@H](CCCCN)NC(=O)[C@H](C)NC(=O)[C@H](CCCCN)NC(=O)[C@H](CCCCN)NC(=O)[C@@H]1CCCN1C(=O)[C@H](CO)NC(=O)[C@H](CCCCN)NC(=O)[C@H](CCCCN)NC(=O)[C@H](C)NC(=O)[C@H](C)NC(=O)[C@@H]1CCCN1C(=O)[C@H](CCCCN)NC(=O)[C@H](CCCCN)NC(=O)[C@H](C)NC(=O)[C@H](CCCCN)NC(=O)[C@H](CCCCN)NC(=O)[C@@H]1CCCN1C(=O)[C@H](CO)NC(=O)[C@H](CCCCN)NC(=O)[C@H](CCCCN)NC(=O)[C@H](C)NC(=O)[C@H](C)NC(=O)[C@@H]1CCCN1C(=O)[C@H](CCCCN)NC(=O)[C@H](CCCCN)NC(=O)[C@H](C)NC(=O)[C@H](CCCCN)NC(=O)[C@H](CCCCN)NC(=O)[C@@H]1CCCN1C(=O)[C@H](CO)NC(=O)[C@H](CCCCN)NC(=O)[C@@H](N)CCCCN)C(=O)O) [NBC13],,,,,,NBC11>NBC13>NBC8>>NBC15>>>polylysine,
NH2-TKKSPKKAKKPAAKKSPKKAKKPAAKKSPKKAKKPAAC(Acm)-COOH (H-TKKSPKKAKKPAAKKSPKKAKKPAAKKSPKKAKKPAAC(Acm)-OH; SMILES CC(=O)NCSC[C@H](NC(=O)[C@H](C)NC(=O)[C@H](C)NC(=O)[C@@H]1CCCN1C(=O)[C@H](CCCCN)NC(=O)[C@H](CCCCN)NC(=O)[C@H](C)NC(=O)[C@H](CCCCN)NC(=O)[C@H](CCCCN)NC(=O)[C@@H]1CCCN1C(=O)[C@H](CO)NC(=O)[C@H](CCCCN)NC(=O)[C@H](CCCCN)NC(=O)[C@H](C)NC(=O)[C@H](C)NC(=O)[C@@H]1CCCN1C(=O)[C@H](CCCCN)NC(=O)[C@H](CCCCN)NC(=O)[C@H](C)NC(=O)[C@H](CCCCN)NC(=O)[C@H](CCCCN)NC(=O)[C@@H]1CCCN1C(=O)[C@H](CO)NC(=O)[C@H](CCCCN)NC(=O)[C@H](CCCCN)NC(=O)[C@H](C)NC(=O)[C@H](C)NC(=O)[C@@H]1CCCN1C(=O)[C@H](CCCCN)NC(=O)[C@H](CCCCN)NC(=O)[C@H](C)NC(=O)[C@H](CCCCN)NC(=O)[C@H](CCCCN)NC(=O)[C@@H]1CCCN1C(=O)[C@H](CO)NC(=O)[C@H](CCCCN)NC(=O)[C@H](CCCCN)NC(=O)[C@@H](N)[C@@H](C)O)C(=O)O) [NBC9],97800,0.00293,,,"NBC15>NBC8, NBC9, NBC11>NBC7>>>poly-lysine",,Although transfection is evident the level of transfection is noticeably lower

# Source: patent US6218112A, “Optimization of gene delivery and gene delivery system” (Cobra Therapeutics Limited, priority 1997, dated 2001)
